Series [1] has as its system DU-145. The experiment in a line: Cytotoxicity against Homo sapiens (human) DU145 cells after 48 hr by MTT assay. It is filed as functional, cell-based.
Series [2] concerns Rattus norvegicus. Description: Inhibition of 5alpha-reductase in Rattus norvegicus Sprague-Dawley (rat) assessed as increase in serum testosterone at 40 mg/kg, ip after 6 hr by ELISA. It is filed as functional, organism-based. The arrangement: dose 40 mg/kg. (In general: An ELISA detects its analyte on a solid surface through an enzyme-linked reagent.)
Series [3] is described as follows: Cytotoxicity against Mus musculus Balb/c (mouse) macrophages after 24 hr by MTT assay. Type of series: cell-based, Macrophage. To be noted: read-out: LC50. In general terms: Tetrazolium dyes change colour on reduction, which living cells bring about.
Series [4] relates to DU-145. Description: Growth inhibition of Homo sapiens (human) DU145 cells at 5 ug/ml after 48 hr by MTT assay. It is filed as functional. As to conditions: for inhibition of growth at 5 µg/mL: DU-145, 48 h, read-out: GI.
Series [5] concerns DU-145. Description: Growth inhibition of Homo sapiens (human) DU145 cells at 2 ug/ml after 48 hr by MTT assay. It is filed as functional. To be noted: for inhibition of growth at 2 µg/mL: DU-145, 48 h, read-out: GI.
The test system of series [6] is DU-145. The experiment in a line: Growth inhibition of Homo sapiens (human) DU145 cells at 0.01 ug/ml after 48 hr by MTT assay. It is filed as functional. To be noted: for inhibition of growth at 0.01 µg/mL: DU-145, 48 h, read-out: GI.
Series [7] concerns DU-145. The experiment in a line: Growth inhibition of Homo sapiens (human) DU145 cells at 1 ug/ml after 48 hr by MTT assay. It is filed as functional. To be noted: for inhibition of growth at 1 µg/mL: DU-145, 48 h, read-out: GI.
The subject of series [8] is DU-145. The experiment in a line: Growth inhibition of Homo sapiens (human) DU145 cells at 0.5 ug/ml after 48 hr by MTT assay. Type of series: functional. To be noted: for inhibition of growth at 0.5 µg/mL: DU-145, 48 h, read-out: GI.
Where [9] appears, read: Homo sapiens, DU-145, 48 h, read-out: IC50.

Calls of active or inactive are those of the source. The calls are words filed in the database; no cut-off is given here.

A word on the IC50: it is the concentration needed to halve the response being measured. For `C[C@]12CC[C@H](OC(=O)c3ccc(O)cc3)CC1=CC[C@@H]1[C@@H]2CC[C@]2(C)/C(=N/O)CC[C@@H]12`, in series [1] (setting [9]), the 50% inhibitory concentration (IC50) was 2.9 µM. Also, in series [2], the inhibition result was “inactive”. Besides, in series [3], the CC50 at 24 h came out at 22 µM. For the same molecule, in series [4], the inhibition of growth at 5 µg/mL was 91.5%.

Turning to `CC(C)(C)NC(=O)[C@H]1CC[C@H]2[C@@H]3CC[C@H]4NC(=O)C=C[C@]4(C)[C@H]3CC[C@]12C` [FINASTERIDE], in series [5], the inhibition of growth at 2 µg/mL was determined as 36%. The inhibition of growth at 0.01 µg/mL in series [6] was 5%. The inhibition result in series [2] was “Active”. The CC50 at 24 h in series [3] is 28.2 µM. Besides, the inhibition of growth at 5 µg/mL in series [4] stood at 78.5%.

As to `C[C@]12CC[C@H](OC(=O)Cc3ccccc3)CC1=CC[C@@H]1[C@@H]2CC[C@]2(C)/C(=N/O)CC[C@@H]12`, the IC50 in series [1] (setting [9]) worked out at 6.5 µM. For the same molecule, the “growth inhibition (GI)” value in series [7], in series [5], in series [6], in series [4] and in series [8] was “inactive” in each case. The inhibition result in series [2] was “Active”. Moreover, the CC50 at 24 h in series [3] amounted to 11.8 µM.

With `Cc1ccc(C(=O)O[C@H]2CC[C@@]3(C)C(=CC[C@@H]4[C@@H]3CC[C@]3(C)/C(=N/O)CC[C@@H]43)C2)cc1`, the concentration for half-maximal inhibition (IC50) in series [1] (setting [9]) was 2.3 µM. In addition, the inhibition entry in series [2] was “Active”. Moreover, in series [3], the CC50 at 24 h was determined as 22 µM. For the same molecule, the inhibition of growth at 5 µg/mL in series [4] was determined as 92.9%.

`C[C@]12CC[C@H](OC(=O)c3ccccc3)CC1=CC[C@@H]1[C@@H]2CC[C@]2(C)/C(=N/O)CC[C@@H]12`: the concentration for half-maximal inhibition (IC50) in series [1] (setting [9]) stood at 3.8 µM. In addition, the inhibition entry in series [2] was “Active”. The CC50 at 24 h in series [3] amounted to 89.4 µM. In addition, the inhibition of growth at 5 µg/mL in series [4] is 91.1%.

In the case of `C[C@]12CC[C@H](OC(=O)COc3ccccc3)CC1=CC[C@@H]1[C@@H]2CC[C@]2(C)/C(=N/O)CC[C@@H]12`, the IC50 in series [1] (setting [9]) stood at 6.3 µM. The inhibition result in series [2] was “Active”. In series [3], the CC50 at 24 h came out at 89 µM.

Consider `C[C@]12CC[C@H](OC(=O)c3ccc([N+](=O)[O-])cc3)CC1=CC[C@@H]1[C@@H]2CC[C@]2(C)/C(=N/O)CC[C@@H]12`, for which the 50% inhibitory concentration (IC50) in series [1] (setting [9]) came to 3.07 µM. Besides, in series [2], the inhibition result was “Active”. Also, the CC50 at 24 h in series [3] was 19.5 µM. Further, the inhibition of growth at 5 µg/mL in series [4] was 81.5%.

On to `C[C@]12CC[C@H](OC(=O)c3ccc(N)cc3)CC1=CC[C@@H]1[C@@H]2CC[C@]2(C)/C(=N/O)CC[C@@H]12`, for which the IC50 in series [1] (setting [9]) is 3.7 µM. Besides, the inhibition result in series [2] was “Active”. In addition, the CC50 at 24 h in series [3] turned out to be 29.4 µM. In addition, the inhibition of growth at 5 µg/mL in series [4] was found to be 91%.

Turning to `C[C@]12CC[C@H](OC(=O)c3ccc(Cl)cc3)CC1=CC[C@@H]1[C@@H]2CC[C@]2(C)/C(=N/O)CC[C@@H]12`, in series [1] (setting [9]), the IC50 was 3.4 µM. In addition, the inhibition result in series [2] was “Active”. Moreover, the CC50 at 24 h in series [3] is 24 µM. Moreover, in series [4], the inhibition of growth at 5 µg/mL was 84.5%.

As for `C[C@]12CC[C@H](O)CC1=CC[C@@H]1[C@@H]2CC[C@]2(C)/C(=N/O)CC[C@@H]12`, in series [1] (du-145), the IC50 result was “Not Active”. Moreover, the “growth inhibition (GI)” value in series [7], in series [5], in series [6], in series [4] and in series [8] was “inactive” each time. In series [2], the inhibition entry was “Active”.

`C[C@]12CC[C@H](OC(=O)CCl)CC1=CC[C@@H]1[C@@H]2CC[C@]2(C)/C(=N/O)CC[C@@H]12`: the IC50 in series [1] (setting [9]) amounted to 4.8 µM. Further, the inhibition of growth at 1 µg/mL in series [7] was 56%. In addition, the inhibition of growth at 2 µg/mL in series [5] was 56%. The inhibition of growth at 0.01 µg/mL in series [6] amounted to 53%. In addition, the inhibition entry in series [2] is “Active”. In series [3], the CC50 at 24 h is 28 µM. In addition, the inhibition of growth at 5 µg/mL in series [4] came out at 59.2%. The inhibition of growth at 0.5 µg/mL in series [8] was found to be 55%.

On to `COc1ccc(C(=O)O[C@H]2CC[C@@]3(C)C(=CC[C@@H]4[C@@H]3CC[C@]3(C)/C(=N/O)CC[C@@H]43)C2)cc1`, for which the concentration for half-maximal inhibition (IC50) in series [1] (setting [9]) came to 5.4 µM. Moreover, the inhibition of growth at 1 µg/mL in series [7] was 59.2%. Besides, the inhibition of growth at 2 µg/mL in series [5] came out at 65.6%. Besides, the inhibition of growth at 0.01 µg/mL in series [6] was 30.7%. Besides, in series [2], the inhibition entry is “inactive”. Also, in series [3], the CC50 at 24 h was found to be 14 µM. In series [4], the inhibition of growth at 5 µg/mL came to 69.5%. For the same molecule, in series [8], the inhibition of growth at 0.5 µg/mL came to 51.4%.
